Data set [1] is described as follows: Phase I single-ascending dose (SAD) pharmacokinetics incl. food effect, plasma concentration of the Compound. It is filed as in vivo, human. As to conditions: single PO dose, over 24 h. As for the experimental part:
(§1) A phase I randomized, double-blind, placebo-controlled, adaptive-design, single-ascending dose (SAD) and multiple-ascending dose (MAD) study was conducted in healthy human subjects to evaluate the safety, tolerability, pharmacokinetics (PK), pharmacodynamics (PD), food effect, and optimal oral dose of 3-((1-cyclohexyl-4-oxo-8-(4-oxo-4-phenylbutyl)-1,3,8-triazaspiro[4.5]decan-3-yl)methyl)benzoic acid maleate (hereinafter, “the Maleate Salt”). The SAD phase included an arm to evaluate food effect on the PK of the Maleate Salt. The SAD phase also evaluated the effect of the Maleate Salt on ECG parameters, including an assessment of QT-interval changes using exposure-response analysis.
(§2) The Maleate Salt was formulated in the study as immediate-release, hard gelatin capsules for oral administration. Each capsule contained 5 mg or 25 mg of the Maleate Salt, as well as microcrystalline cellulose NF (AVICEL® PH-102), sodium starch glycolate NF (EXPLOTAB®), and magnesium stearate NF, all filled into a size 3 hard gelatin capsule. A matching placebo containing the same amount of microcrystalline cellulose NF in place of the Maleate Salt was used in the study. The Maleate Salt capsules and matching placebo capsules were packaged in high-density polyethylene (HDPE) bottles with polypropylene caps and stored at controlled conditions per the USP.
(§3) A total of 54 subjects received at least 1 dose of the Maleate Salt, ranging from 5 mg to the maximum single PO dose of 300 mg. Six subjects received a maximum single PO dose of 300 mg and 5 subjects received a total of 900 mg of the Maleate Salt over 5-day period (100 mg BID for 4 days with single 100 mg on Day 5).
The SAD phase had 7 cohorts dosed at 5 mg (cohort 1), 10 mg (cohort 2), 25 mg (cohort 3), 50 mg (cohort 4), 100 mg (cohort 5), 200 mg (cohort 6), and 300 mg (cohort 7) of the Maleate Salt. In each cohort, there were 6 active- and 2 placebo-treated subjects. Subjects were administered the Maleate Salt in the fasting state with 1 exception: subjects in the 25 mg cohort (cohort 3) received the Maleate Salt while fasting and again after a high-fat breakfast to determine food effect on PK.
Mean plasma concentration-time profiles for 3-((1-cyclohexyl-4-oxo-8-(4-oxo-4-phenylbutyl)-1,3,8-triazaspiro[4.5]decan-3-yl)methyl)benzoic acid (hereinafter, “the Compound”) following a single PO dose of the Maleate Salt are shown in FIG. 1.
In evaluating food effect on the PK of the Maleate Salt, subjects on Day 1 in cohort 3 were administered a single dose of the Maleate Salt at 25 mg or placebo in the fasted state. On Day 3, the same subjects received an identical dose 30 minutes after consumption of a standardized, high-fat, high-calorie breakfast.

Data set [2] is described as follows: Phase I multiple-ascending dose (MAD) pharmacokinetics, BID Days 1-4 and single morning dose Day 5. It is filed as in vivo, human. Conditions: MAD phase, 50 or 100 mg BID. The procedure:
as §1, §2, §3
The MAD phase had 2 cohorts dosed at 50 and 100 mg of the Maleate Salt. In each cohort, there were 6 active- and 2 placebo-treated subjects. The Maleate Salt was administered to fasting subjects BID (morning and evening) on Days 1 through 4 and as a single morning dose on Day 5.
On Day 1, mean T1/2 was approximately 2 h for both 50 and 100 mg BID doses. On Day 5, mean T1/2 was 11.0 and 6.2 h following 50 and 100 mg BID doses, respectively. For T1/2 determination, the plasma samples for Day 1 were only collected to 12 h, whereas the plasma samples for Day 5 were collected to 24 h.

On to `O=C(O)c1cccc(CN2CN(C3CCCCC3)C3(CCN(CCCC(=O)c4ccccc4)CC3)C2=O)c1` [Compound 1, 3-((1-cyclohexyl-4-oxo-8-(4-oxo-4-phenylbutyl)-1,3,8-triazaspiro[4.5]decan-3-yl)methyl)benzoic acid], for which the Plasma concentration-time profile entry in data set [1] is “rapid absorption and rapid elimination”; in data set [2] it was “rapid absorption and rapid elimination”.

The values above are taken from US11202776B2, “Treatment of gastroparesis with triazaspiro[4.5]decanone” (Millennium Pharmaceuticals, Inc., priority 2017, dated 2021).
